doi:10.1101/2020.07.28.224543v1, “Diminazene resistance in Trypanosoma congolense is linked to reduced mitochondrial membrane potential and not to reduced transport capacity” (biorxiv, 2020)

Experiments:
T. congolense IL3000 = system: T1, T. congolense IL3000; assay: microbe, parasite or virus in culture; parameters: Alamar blue (resazurin) viability assay of in vitro grown trypanosomes, fluorescence read-out; settings: Trypanosoma congolense, parental strain IL3000
T1 construct: IL3000
Experimental: At the point of adaptation to 550 nM, the level of DA resistance and the extent of any cross-resistance with the diamidine drugs pentamidine and DB829, and with oxaboroles AN7973 and SCYX7158, was tested using an assay based on the viability dye Alamar blue (resazurin), in which live trypanosomes (but not dead ones) reduce blue and non-fluorescent resazurin to pink, fluorescent resorufin. This assay yields a fluorescent output that is proportional to the number of cells in the well [36]. […] Resistance to DA, as measured in this assay, was ~2.3-3-fold, and highly significant (Fig 1A for fold differences and P values, Table 1 for EC50 values). […] Importantly, there was no cross-resistance with isometamidium, nor with either of the oxaboroles tested, AN7973 and SCYX7158. To further investigate the limits of cross-resistance with other diamidines, a series of bis-benzofuran analogues were tested (Table 1). These analogues were chosen to explore the effect of variable linker length between the benzofuramidine end groups, varying inter-amidine distance as well as the flexibility of the molecule.

TbAT1 = biological target: T2, TbAT1 (Trypanosoma brucei, UniProt Q9Y0I0); assay: inhibition of [3H]-diminazene uptake in transfected bloodstream-form trypanosomes; assay type: cell-based; settings: read-out: % inhibition at 1 mM
T2 construct: gene AT1; full-length transporter expressed in T. b. brucei bloodstream-form clone B48 (lacks native TbAT1/P2 and wild-type TbAQP2)
T2 sequence (Q9Y0I0 entry or part of it): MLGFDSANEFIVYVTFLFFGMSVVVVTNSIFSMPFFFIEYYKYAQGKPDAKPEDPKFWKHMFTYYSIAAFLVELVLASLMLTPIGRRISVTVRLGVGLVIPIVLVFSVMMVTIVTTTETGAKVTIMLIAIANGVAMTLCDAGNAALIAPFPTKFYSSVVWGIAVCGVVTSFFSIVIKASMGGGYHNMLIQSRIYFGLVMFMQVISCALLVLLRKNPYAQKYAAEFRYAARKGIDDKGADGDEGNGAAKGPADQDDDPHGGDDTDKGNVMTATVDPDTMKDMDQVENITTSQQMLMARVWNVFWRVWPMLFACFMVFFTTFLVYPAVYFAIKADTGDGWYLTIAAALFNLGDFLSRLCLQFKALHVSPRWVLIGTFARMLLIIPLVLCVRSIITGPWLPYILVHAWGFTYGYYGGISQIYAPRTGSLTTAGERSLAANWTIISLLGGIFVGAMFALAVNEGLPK

CC1(C)OB(O)c2cc(NC(=O)c3ccc(F)cc3C(F)(F)F)ccc21 [SCYX-7158]
EC50 (T. congolense IL3000; first series): 520 nM

Nc1ncnc2c1ncn2[C@@H]1O[C@H](CO)[C@@H](O)[C@H]1O [Ado, adenosine]
inhibition at 1000 µM (TbAT1): 100%

N=C(N)c1ccc(N=NNc2ccc(C(=N)N)cc2)cc1 [DA, diminazene aceturate]
EC50 (T. congolense IL3000; first series): 270 nM
EC50 (T. congolense IL3000; second series): 330 nM

CC1(C)OB(O)c2cc(NC(=O)c3ccc(-n4cccn4)cc3Cl)ccc21 [AN7973]
EC50 (T. congolense IL3000; first series): 120 nM

CC[n+]1c(-c2ccccc2)c2cc(N/N=N/c3cccc(C(=N)N)c3)ccc2c2ccc(N)cc21 [Isometamidium]
EC50 (T. congolense IL3000; first series): 9.8 nM

N=C(N)c1ccc(OCCCCCOc2ccc(C(=N)N)cc2)cc1 [Pentamidine]
EC50 (T. congolense IL3000; first series): 1010 nM
